Results published in patent US20240117303A1, “METHODS AND COMPOSITIONS FOR GENERATING HUMAN MIDBRAIN DOPAMINERGIC NEURONS FROM NEURAL PROGENITOR CELLS” (Trailhead Biosystems Inc., priority 2022, published 2024).

Tested on: stage 2 neural progenitors
Assay: HD-DoE 12-factor model for stage 3 recipe (FIG. 19-23, 29)
Assay type: cell-based, human

Question: How did the “impact on expression of KCNJ6” value (dynamic profile, 12 effectors) turn out when `Cc1c[nH]c(-c2cnc(NCCNc3ccc(C#N)cn3)nc2-c2ccc(Cl)cc2Cl)n1` [CHIR99021] was run?
Answer: Its value is “positive impact”.

Question: And the factor contribution (model maximizing expression of CORIN, negative impact)?
Answer: The factor contribution was 10.9.

Question: And the factor contribution (model optimized for maximum expression of KCNJ6, positive regulators)?
Answer: The factor contribution was 10.7.

Question: What about the “expression level of KCNJ6 in absence of the factor” value (stage 3 recipe, other factors present, 50 with all factors) of the same compound?
Answer: The value was 50.

Question: What about the “expression level of SOX6 in absence of the factor” value (stage 3 recipe, other factors present, 105 with all factors) of the same compound?
Answer: The value was 125.

Question: What about the “expression level of MSX1 in absence of the factor” value (stage 3 recipe, other factors present, 140 with all factors) of the same compound?
Answer: Its value is 115.

Question: And the “expression level of CORIN in absence of the factor” value (stage 3 recipe, other factors present, 900 with all factors)?
Answer: The value was 1200.
